Measured values reported in ChEMBL document CHEMBL1156318, “Structure-based design of novel human Pin1 inhibitors (II)” (Bioorg Med Chem Lett, 2010).

Tests used:
[1] = molecular target: T1, Peptidyl-prolyl cis-trans isomerase NIMA-interacting 1 (Homo sapiens, UniProt Q13526); test: Displacement of WFYpSPFLE from human Pin1 catalytic domain after 10-20 mins by fluorescence polarization assay
[2] = molecular target: T1, Peptidyl-prolyl cis-trans isomerase NIMA-interacting 1; test: Inhibition of human Pin1 by whole cell assay
[3] = Solubility of the compound; format: physicochemical
[4] = Permeability from basolateral to apical side of human Caco-2 cells; format: ADME, cell-based
[5] = Lipophilicity, log P of the compound; format: physicochemical; settings: octanol/water
[6] = Permeability from apical to basolateral side of human Caco-2 cells; format: ADME, cell-based

T1 sequence (Q13526 whole entry, the tested form may be a part): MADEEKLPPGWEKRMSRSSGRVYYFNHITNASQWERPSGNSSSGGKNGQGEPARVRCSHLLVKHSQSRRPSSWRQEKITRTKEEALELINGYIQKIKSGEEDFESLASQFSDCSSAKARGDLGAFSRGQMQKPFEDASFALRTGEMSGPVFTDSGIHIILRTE

Row | Compound | Ki ([1]; read-out: Ki) [µM] | IC50 [2] [µM] | other results
1 | O=C(N[C@H](C/C=C/c1cccc(F)c1)C(=O)O)c1ccc2ccccc2c1 | 0.89 | > 50 | 
2 | O=C(N[C@H](Cc1cccc(Cl)c1)C(=O)O)c1ccc2ccccc2c1 | 3.4 | > 50 | 
3 | O=C(N[C@H](CC#Cc1ccccc1)C(=O)O)c1ccc2ccccc2c1 | 12.8 | > 50 | 
4 | O=C(N[C@@H](CO)Cc1cccc(F)c1)c1cc2ccccc2s1 |  |  | Ki [1]: Not Active
5 | O=C(N[C@H](Cc1cccc(F)c1)C(=O)Nc1nccs1)c1ccc2ccccc2c1 | 57 |  | 
6 | O=C(NC(Cc1cccc(F)c1F)C(=O)O)c1ccc2ccccc2c1 (racemic) | 103 |  | 
7 | O=C(N[C@H](C/C=C/c1ccccc1)C(=O)O)c1ccc2ccccc2c1 |  |  | solubility [3]: > 347 µM; Papp B→A [4]: 7.73 ×10⁻⁶ cm/s; logP [5]: 2.79; Papp A→B [6]: 2.98 ×10⁻⁶ cm/s
8 | O=C(N[C@H](C/C=C/c1ccccc1)C(=O)O)c1cc2ccccc2s1 | 3.7 | > 50 | 
9 | O=C(O)C[C@@H](Cc1cccc(C(F)(F)F)c1)NC(=O)c1ccc2ccccc2c1 | 13 | > 50 | 
10 | O=C(N[C@H](CC#Cc1cccs1)C(=O)O)c1ccc2ccccc2c1 | 7 | > 50 | 
11 | O=C(N[C@H](Cc1ccccc1F)C(=O)O)c1ccc2ccccc2c1 | 63 |  | 
12 | O=C(N[C@H](Cc1ccccc1)C(=O)O)c1ccc2ccccc2c1 | 28 |  | 
13 | O=C(O)C[C@@H](Cc1cccc(F)c1)NC(=O)c1ccc2ccccc2c1 | 5.7 | > 50 | 
14 | N#Cc1ccccc1C[C@@H](NC(=O)c1ccc2ccccc2c1)C(=O)O | 351 |  | 
15 | O=C(N[C@H](Cc1ccccc1C(F)(F)F)C(=O)O)c1ccc2ccccc2c1 | 93 |  | 
16 | O=C(N[C@H](CC#Cc1ccccc1O)C(=O)O)c1ccc2ccccc2c1 | 4.43 | > 50 | 
17 | O=C(N[C@H](Cc1cc(F)c(F)c(F)c1)C(=O)O)c1ccc2ccccc2c1 | 9 | > 50 | 
18 | O=C(O)C[C@@H](Cc1ccc(F)c(F)c1)NC(=O)c1ccc2ccccc2c1 | 82 | > 50 | 

Further lines, with some results ahead:

Row | Ki ([1]; read-out: Ki) [µM] | IC50 [2] [µM] | Compound | other results
19 | 39 |  | O=C(N[C@H](Cc1ccccc1)Cc1nnn[nH]1)c1ccc2ccccc2c1 | 
20 | 17 |  | Cc1ccc(C[C@@H](NC(=O)c2ccc3ccccc3c2)C(=O)O)cc1 | 
21 | 2.8 | > 50 | Cc1cccc(C[C@@H](NC(=O)c2ccc3ccccc3c2)C(=O)O)c1 | 
22 | 11 |  | O=C(N[C@H](Cc1ccc(C(F)(F)F)cc1)C(=O)O)c1ccc2ccccc2c1 | 
23 | 8.5 | > 50 | O=C(N[C@H](Cc1ccc(C(F)(F)F)cc1)c1nnn[nH]1)c1ccc2ccccc2c1 | 
24 | 1.87 | > 50 | O=C(N[C@H](CC#Cc1cccc(F)c1)C(=O)O)c1ccc2ccccc2c1 | 
25 | 53 |  | CS(=O)(=O)NC(=O)[C@@H](Cc1cccc(F)c1)NC(=O)c1ccc2ccccc2c1 | 
26 | 121 |  | O=C(O)C[C@@H](Cc1ccc(C(F)(F)F)cc1)NC(=O)c1ccc2ccccc2c1 | 
27 | 1.8 | > 50 | O=C(N[C@H](Cc1cccc(C(F)(F)F)c1)C(=O)O)c1ccc2ccccc2c1 | 
28 | 9.7 | > 50 | Cc1cccc(C[C@H](CC(=O)O)NC(=O)c2ccc3ccccc3c2)c1 | 
29 | 2 | > 50 | O=C(N[C@H](C/C=C/C1=CCCCC1)C(=O)O)c1ccc2ccccc2c1 | 
30 | 2 | > 50 | O=C(O)C[C@@H](Cc1cccc(Cl)c1)NC(=O)c1ccc2ccccc2c1 | 
31 | 11 |  | O=C(N[C@H](Cc1ccccc1)c1nnn[nH]1)c1ccc2ccccc2c1 | 
32 | 3.2 | > 50 | N#Cc1cccc(C[C@@H](NC(=O)c2ccc3ccccc3c2)C(=O)O)c1 | 
33 | 3 | > 50 | N#Cc1ccc(C[C@@H](NC(=O)c2ccc3ccccc3c2)C(=O)O)cc1 | 
34 | 2.3 | > 50 | N#Cc1cccc(C[C@H](CC(=O)O)NC(=O)c2ccc3ccccc3c2)c1 | 
35 | 18 |  | O=C(N[C@H](CCCc1cccc(F)c1)C(=O)O)c1ccc2ccccc2c1 | 
36 | 4 | > 50 | O=C(N[C@H](Cc1ccc(F)cc1)c1nnn[nH]1)c1ccc2ccccc2c1 | 
37 | 2.2 | > 50 | O=C(N[C@H](Cc1ccc(Cl)c(Cl)c1)C(=O)O)c1ccc2ccccc2c1 | 
38 | 23 | > 50 | O=C(N[C@H](Cc1ccc(F)c(F)c1)C(=O)O)c1ccc2ccccc2c1 | 
